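Compound exposure: 48 hours, 5 concentrations, 96-well plates. At the GI50, growth is halved.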 Activity calls are given as the source filed them. No stated cut-off is given here; in the data, active = GI50 up to about 1.1 µM and inactive = higher.

Among the test systems are NCI-H460; OVCAR-4; RXF 393; HL-60; SF-295; SK-OV-3; UO-31; IGROV-1; SNB-19; COLO 205; HT-29; A498; MCF7; A549; PC-3; Hs-578T; SW-620; OVCAR-3; UACC-257; DU-145.
Assay in all cases: NCI tumour cell line growth inhibition, 48 h

As for `CCCCCCCCC/C=C1/CC(CO)(COC(=O)CC(C(C)C)C(C)C)OC1=O` (centres undefined), the GI50 in the assay with NCI-H460 was 3.1 µM (inactive); in the assay with OVCAR-4 it was 14.7 µM (inactive); with RXF 393, 13.9 µM (inactive); in the assay with HL-60, 0.271 µM (active); in the assay with SF-295, 0.675 µM (active); in the assay on SK-OV-3, 17.4 µM (inactive). Moreover, the GI50 in the assay with UO-31 is 2.44 µM (inactive); in the assay with IGROV-1, 15.4 µM (inactive); in the assay with SNB-19, 10.5 µM (inactive); with COLO 205, 0.193 µM (active); in the assay with HT-29, 16.3 µM (inactive); with A498 it was 3.14 µM (inactive). Further, the GI50 is 9.23 µM (inactive) with MCF7; 1.58 µM (inactive) with A549; 6.75 µM (inactive) in the assay with PC-3; 0.109 µM (active) in the assay on Hs-578T; 1.16 µM (inactive) in the assay with SW-620; 13.9 µM (inactive) with OVCAR-3. Moreover, the GI50 in the assay with UACC-257 was 12.9 µM (inactive); in the assay on DU-145 it was 12.4 µM (inactive).

On to `COc1ccc(/N=N\c2c(N)nn3c(SC)c(C#N)c(N)nc23)cc1`, for which the GI50 with NCI-H460 is 15.8 µM (inactive); in the assay with OVCAR-4, 15.1 µM (inactive); in the assay on RXF 393, 6.47 µM (inactive); with HL-60, 2.71 µM (inactive); with SF-295, 19.9 µM (inactive); in the assay on SK-OV-3, 19.5 µM (inactive). Moreover, the GI50 in the assay on UO-31 is 12.4 µM (inactive); in the assay on IGROV-1, 1.82 µM (inactive); with SNB-19, 16.9 µM (inactive); in the assay with COLO 205, 12.9 µM (inactive); in the assay with HT-29, 9.75 µM (inactive); with A498, 11.1 µM (inactive). Also, the GI50 is 2.4 µM (inactive) in the assay on MCF7; 18 µM (inactive) with A549; 6.87 µM (inactive) in the assay on PC-3; 2.52 µM (inactive) with Hs-578T; 4.6 µM (inactive) in the assay on SW-620; 2.82 µM (inactive) with OVCAR-3. Further, the GI50 in the assay on UACC-257 was 5.11 µM (inactive); in the assay with DU-145 it was 5.52 µM (inactive).

As to `C/C=C1/CN2CCC34c5ccccc5N5C(=O)C(C6CC78c9ccccc9N9C(=O)C=CC(C%10CC7N6C/C%10=C/C)C98)=CC(C1CC23)C54` (centres undefined), the GI50 with NCI-H460 was 6.65 µM (inactive); with OVCAR-4, 7.01 µM (inactive); in the assay with RXF 393, 1.73 µM (inactive); in the assay on HL-60, 0.183 µM (active); with SF-295, 9.2 µM (inactive); in the assay on SK-OV-3, 9.79 µM (inactive). Further, the GI50 with UO-31 was 2.84 µM (inactive); in the assay on IGROV-1, 4.43 µM (inactive); in the assay on SNB-19 it was 7.87 µM (inactive); with COLO 205, 5.09 µM (inactive); in the assay on HT-29, 2.44 µM (inactive); in the assay with A498, 8.81 µM (inactive). Besides, the GI50 with MCF7 is 2.13 µM (inactive); with A549, 8.15 µM (inactive); in the assay with PC-3, 2.1 µM (inactive); with Hs-578T, 8.11 µM (inactive); in the assay with SW-620, 1.59 µM (inactive); in the assay on OVCAR-3, 5.6 µM (inactive). Moreover, the GI50 in the assay on UACC-257 is 5.62 µM (inactive); with DU-145, 7.71 µM (inactive).

As to `CC(=O)Oc1ccc(N2C(=O)C3c4[nH]c5ccccc5c4C4CCC(C(C)(C)C)CC4C3C2=O)cc1` (centres undefined), the GI50 in the assay on NCI-H460 is 2.55 µM (inactive); in the assay on RXF 393, 2.46 µM (inactive); in the assay on HL-60, 2.21 µM (inactive); in the assay with SF-295, 4.37 µM (inactive); with SK-OV-3, 10.8 µM (inactive); in the assay on UO-31, 5.35 µM (inactive). The GI50 is 5.97 µM (inactive) in the assay with IGROV-1; 3.08 µM (inactive) in the assay on SNB-19; 4.71 µM (inactive) with COLO 205; 3.3 µM (inactive) in the assay on HT-29; 4.11 µM (inactive) in the assay on A498; 2.88 µM (inactive) in the assay with MCF7. Further, the GI50 in the assay on A549 was 3.13 µM (inactive); in the assay on PC-3, 2.79 µM (inactive); in the assay on Hs-578T it was 2.31 µM (inactive); in the assay on SW-620, 2.51 µM (inactive); with OVCAR-3 it was 2.69 µM (inactive); in the assay with UACC-257, 11.1 µM (inactive). Also, the GI50 in the assay on DU-145 is 3.7 µM (inactive).

As to `C=C1C(=O)OC2C1C(OC(=O)/C(C)=C/C)CC(O)(CCl)C1C(O)C3OC3(C)C21O` (centres undefined), the GI50 in the assay with NCI-H460 is > 50 µM (inactive); in the assay with OVCAR-4 it was > 50 µM (inactive); in the assay with RXF 393 it was 9.77 µM (inactive); in the assay with HL-60, 8.79 µM (inactive); with SF-295 it was > 50 µM (inactive); in the assay on SK-OV-3 it was > 50 µM (inactive). Moreover, the GI50 with IGROV-1 is > 50 µM (inactive); in the assay with SNB-19 it was > 50 µM (inactive); in the assay with COLO 205 it was 13.3 µM (inactive); in the assay with HT-29, 36.9 µM (inactive); with A498 it was > 50 µM (inactive); in the assay on MCF7 it was 18.2 µM (inactive). Also, the GI50 in the assay on A549 is > 50 µM (inactive); in the assay on PC-3, > 50 µM (inactive); with Hs-578T it was > 50 µM (inactive); in the assay on SW-620 it was 13.4 µM (inactive); with OVCAR-3, 27.5 µM (inactive); in the assay with UACC-257, > 50 µM (inactive). For the same molecule, the GI50 in the assay with DU-145 is > 50 µM (inactive).

Turning to `C[C@@H]1CC[C@@]2(OC1)O[C@H]1C[C@H]3[C@@H]4CC[C@H]5C[C@@H](OC6OC(CO)C(OC7OC(CO)C(O)C(OC8OCC(O)C(O)C8O)C7OC7OC(CO)C(O)C(O)C7O)C(O)C6O)[C@H](O)C[C@]5(C)[C@H]4CC[C@]3(C)[C@H]1[C@@H]2C` (some centres undefined), the GI50 with NCI-H460 is 1.85 µM (inactive); in the assay with OVCAR-4, 1.95 µM (inactive); with RXF 393 it was 9.98 µM (inactive); in the assay with HL-60, 1.49 µM (inactive); in the assay on SF-295, 3.89 µM (inactive); in the assay on SK-OV-3, 10.8 µM (inactive). Also, the GI50 in the assay on UO-31 is 4.52 µM (inactive); with IGROV-1, 2.16 µM (inactive); with SNB-19, 10.1 µM (inactive); with COLO 205, 2.46 µM (inactive); with HT-29, 1.75 µM (inactive); in the assay on A498 it was 7.89 µM (inactive). Moreover, the GI50 with MCF7 was 0.804 µM (active); in the assay on A549, 0.855 µM (active); in the assay with PC-3 it was 3.15 µM (inactive); in the assay on Hs-578T, 5.75 µM (inactive); in the assay on SW-620 it was 4.19 µM (inactive); in the assay on OVCAR-3, 2.88 µM (inactive). For the same molecule, the GI50 with UACC-257 was 18.1 µM (inactive); in the assay with DU-145, 2.42 µM (inactive).

`CC(=O)OCC1OC(On2ccccc2=S)C(OC(C)=O)C(OC(C)=O)C1OC(C)=O` (centres undefined): the GI50 in the assay with NCI-H460 was > 100 µM (inactive); in the assay on OVCAR-4, > 100 µM (inactive); in the assay with RXF 393, > 100 µM (inactive); with HL-60 it was 1.55 µM (inactive); in the assay with SF-295 it was > 100 µM (inactive); in the assay on SK-OV-3, > 100 µM (inactive). Moreover, the GI50 in the assay on UO-31 is > 100 µM (inactive); with IGROV-1, > 100 µM (inactive); in the assay with SNB-19 it was > 100 µM (inactive); in the assay with COLO 205 it was 81.5 µM (inactive); with HT-29 it was 78.9 µM (inactive); in the assay on A498 it was > 100 µM (inactive). Further, the GI50 in the assay on MCF7 was > 100 µM (inactive); in the assay with A549, > 100 µM (inactive); in the assay with PC-3 it was 69.2 µM (inactive); in the assay on Hs-578T it was > 100 µM (inactive); in the assay with SW-620, 36.6 µM (inactive); in the assay with OVCAR-3, > 100 µM (inactive). For the same molecule, the GI50 in the assay with UACC-257 and in the assay with DU-145 was > 100 µM (inactive) throughout.

Regarding `O=C(CSc1nc2ccc(I)cc2c(=O)n1Cc1ccccc1)NNC(=S)Nc1ccccc1`, the GI50 is 5.47 µM (inactive) in the assay on NCI-H460; 6.53 µM (inactive) in the assay with OVCAR-4; > 100 µM (inactive) with RXF 393; 25.5 µM (inactive) in the assay on HL-60; 54 µM (inactive) with SF-295; > 100 µM (inactive) in the assay on SK-OV-3. For the same molecule, the GI50 was 2.91 µM (inactive) in the assay with IGROV-1; 41.3 µM (inactive) in the assay with SNB-19; 23.1 µM (inactive) in the assay with COLO 205; 41.5 µM (inactive) in the assay with HT-29; 3.55 µM (inactive) with A498; 22.5 µM (inactive) in the assay with MCF7. Besides, the GI50 is 24.6 µM (inactive) in the assay on A549; 9.68 µM (inactive) with PC-3; 7.78 µM (inactive) in the assay with Hs-578T; 33.6 µM (inactive) in the assay with SW-620; 12.9 µM (inactive) in the assay on OVCAR-3; 14.7 µM (inactive) with UACC-257. Moreover, the GI50 in the assay with DU-145 was > 100 µM (inactive).

`NC(=O)/C=C/NC(=O)/C=N\O`: the GI50 in the assay with NCI-H460, in the assay with OVCAR-4, in the assay on RXF 393, in the assay on HL-60, in the assay with SF-295 and with SK-OV-3 was > 100 µM (inactive) in each case. The GI50 in the assay on UO-31, in the assay on IGROV-1, in the assay on SNB-19, in the assay with COLO 205, in the assay with HT-29 and in the assay with A498 was > 100 µM (inactive) each time. Moreover, the GI50 in the assay with MCF7, in the assay with PC-3, in the assay with Hs-578T, with SW-620, in the assay on OVCAR-3 and in the assay with UACC-257 was > 100 µM (inactive) throughout. Further, the GI50 with DU-145 was > 100 µM (inactive).

On to `O=C(Nc1ccc(S(=O)(=O)/N=c2\ncccn2C(=O)C(C(F)(F)F)C(F)(F)F)cc1)C(C(F)(F)F)C(F)(F)F`, for which the GI50 in the assay on NCI-H460, in the assay with OVCAR-4, in the assay with RXF 393, in the assay on HL-60, with SF-295 and in the assay on SK-OV-3 was > 100 µM (inactive) in each case. Moreover, the GI50 in the assay on IGROV-1, in the assay on SNB-19, in the assay with COLO 205, in the assay on HT-29, in the assay on A498 and with MCF7 was > 100 µM (inactive) each time. Further, the GI50 in the assay with A549, in the assay with PC-3, with Hs-578T, in the assay on OVCAR-3, in the assay on UACC-257 and in the assay on DU-145 was > 100 µM (inactive) in each case.

These data come from ChEMBL document CHEMBL1201862, “PubChem BioAssay data set” (2004).
